Assay [1] addresses T1, IDO1 (Homo sapiens, UniProt P14902). Nature of the assay: IDO1 Cellular Assay in HeLa Cells Stimulated with IFNγ. The class given is cell-based. As to conditions: read-out: HeLa Cell Potency, IC50.
The target in assay [2] is T1, IDO1. The experiment in a line: IDO1 Human Whole blood Assay. The class given is cell-based. Set-up: Human whole blood was drawn in sodium heparin coated tubes from healthy internal donors; from tissue; host or cells: human whole blood from healthy donors, stimulated with LPS and IFNγ. As to conditions: LPS and IFNγ stimulated, 18 h, read-out: Human Whole Blood Potency, IC50. Here is the method:
IDO1Human Whole blood Assay
Compounds to be tested were serially diluted in ten 3-fold steps in DMSO starting from 10 mM. 3 μL of compound dilutions or DMSO alone were then dispensed from the dilution plate into a polypropylene 96-well assay plate containing 97 μL of RPMI medium using an Echo 555 acoustic liquid handler (Labcyte). LPS and IFNγ was prepared in RPMI medium to a 10× of final conc. (1000 ng/mL), final concentration is 100 ng/mL.
Human whole blood was drawn in sodium heparin coated tubes from healthy internal donors. 240 μL of blood was transferred to each of the wells of a v-bottom 96 well plate. 30 μL of compound was transferred from intermediate dilution plate, and incubated for 15 min. 30 μL from stimulants was then transferred to blood and mixed thoroughly. Plate was covered with breathable membrane and incubated at 37° C. for overnight (18 h).
On day 2, isotope labeled standard solutions of kynurenine and tryptophan was made in water at 10× concentration and 30 μL was added to the blood at 3 μM final concentration. The assay plates were centrifuged at 300×G for 10 min with no brake to separate plasma from red blood cells. 60 μL of plasma samples was removed without disturbing red blood cells. Plasma was diluted with RPMI in 1:1 ratio and proteins were precipitated out with two volumes of Acetonitrile. The plates were centrifuged at 4000×G for 60 min. 20 μL of supernatant was carefully transferred to a 384 well plate containing 40 μL of 0.1% formic acid in water and analyzed by LC/MS/MS.
LC/MS/MS analyses were performed using Thermo Fisher's LX4-TSQ Quantum Ultra system. This system consists of four Agilent binary high-performance liquid chromatography (HPLC) pumps and a TSQ Quantum Ultra triple quadrupole MS/MS instrument. For each sample, 5 μL were injected onto an Atlantis T3 column (2.1 mm×150 mm, 3 μm particle size) from Waters. The mobile phase gradient pumped at 0.8 mL/min was used to elute the analytes from the column at 25° C. The elution started at 0% B increasing linearly to 25% B at 6.5 min, holding at 25% for 1 min, re-equilibrating to 10 min. Mobile phase A consisted of 0.1% formic acid in water. Mobile phase B consisted of 0.1% of formic acid in acetonitrile. Data were acquired in positive mode using a HESI interface. The operational parameters for the TSQ Quantum Ultra instrument were a spray voltage of 4000 V, capillary temperature of 380° C., vaporizer temperature 400° C., shealth gas 60 arbitrary units, Aux gas 20 arbitrary units, tube lens 85 and collision gas 1.2 mTorr. SRM chromatograms of kynurenine (Q1: 209.2>Q3:94.0) and internal standard (Q1: 215.3>Q3:98.2) were collected for 90 sec. The peak area was integrated by Xcalibur Quan software. The ratios between the kynurenine generated in the reaction and 2D6-Kynurenine spiked-in internal standard were used to generate percentage inhibition and IC50 values. Compounds were titrated and IC50's were calculated by 4 parameter sigmoidal curve fitting formula.

Results on 19 molecules are retold here after patent US12264134B2 (Merck Sharp & Dohme LLC, priority 2018, dated 2025).

T1 sequence (P14902 whole entry): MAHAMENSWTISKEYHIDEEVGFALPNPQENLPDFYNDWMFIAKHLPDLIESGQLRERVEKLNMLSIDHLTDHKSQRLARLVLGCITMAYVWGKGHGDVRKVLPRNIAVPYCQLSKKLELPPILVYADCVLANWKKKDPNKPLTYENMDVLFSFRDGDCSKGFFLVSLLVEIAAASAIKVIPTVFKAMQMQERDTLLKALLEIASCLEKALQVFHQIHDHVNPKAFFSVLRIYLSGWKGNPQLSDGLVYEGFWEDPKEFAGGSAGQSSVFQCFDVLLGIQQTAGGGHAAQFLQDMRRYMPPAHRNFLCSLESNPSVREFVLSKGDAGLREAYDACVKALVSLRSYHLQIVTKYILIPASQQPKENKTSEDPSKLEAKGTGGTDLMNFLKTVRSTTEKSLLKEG

As for `Cc1cccc(N2CCN(C(=O)Cn3nc(C(=O)N4CCC(O)C(F)C4)c4c3CCC4)C3(CC3)C2)c1C` (single isomer, unassigned) [Example 330, 1-[7-(2,3-dimethylphenyl)-4,7-diazaspiro[2.5]octan-4-yl]-2-[3-(3-fluoro-4-hydroxy-piperidine-1-carbonyl)-5,6-dihydro-4H-cyclopenta[c]pyrazol-1-yl]ethanone], the IC50 on IDO1 [1] worked out at 7.61 nM; at IDO1 [2], 971 nM.
On to `Cc1c(Cl)cccc1N1CCN(C(=O)Cn2nc(C(=O)N3CCC(OCCO)CC3)c3c2CCC(F)C3)CC1` (single isomer, unassigned) [Example 368, 1-(4-(3-chloro-2-methylphenyl)piperazin-1-yl)-2-(5-fluoro-3-(4-(2-hydroxyethoxy)piperidine-1-carbonyl)-4,5,6,7-tetrahydro-1H-indazol-1-yl)ethan-1-one], for which the IC50 at IDO1 [1] was 2.8 nM; on IDO1 [2], 55 nM.
Turning to `Cc1c(Cl)cccc1N1CCN(C(=O)Cn2nc(C(=O)N3CCC(OCCO)CC3)c3c2CCC(F)C3)CC1` (single isomer, unassigned) [Example 373, 1-(4-(3-chloro-2-methylphenyl)piperazin-1-yl)-2-(5-fluoro-3-(4-(2-hydroxyethoxy)piperidine-1-carbonyl)-4,5,6,7-tetrahydro-1H-indazol-1-yl)ethan-1-one], the IC50 at IDO1 [1] stood at 3.78 nM; at IDO1 [2], 202 nM.
The corresponding values for `Cc1cccc(N2CCN(C(=O)Cn3nc(C(=O)N4CCC(O)C(F)C4)c4c3CCC4)C3(CC3)C2)c1C` (single isomer, unassigned) [Example 393, 1-(7-(2,3-dimethylphenyl)-4,7-diazaspiro[2.5]octan-4-yl)-2-(3-(3-fluoro-4-hydroxypiperidine-1-carbonyl)-5,6-dihydrocyclopenta[c]pyrazol-1(4H)-yl)ethanone] are 7.61 nM and 971 nM.
Turning to `Cc1cccc(N2CCN(C(=O)Cn3nc(C(=O)N4CCC(O)C(F)C4)c4c3CCC4)C3(CC3)C2)c1C` (single isomer, unassigned) [Example 394, 1-(7-(2,3-dimethylphenyl)-4,7-diazaspiro[2.5]octan-4-yl)-2-(3-(3-fluoro-4-hydroxypiperidine-1-carbonyl)-5,6-dihydrocyclopenta[c]pyrazol-1(4H)-yl)ethanone], the IC50 at IDO1 [1] amounted to 7.2 nM; at IDO1 [2], 904 nM.
On the same counts, the results for `Cc1cccc(N2CCN(C(=O)Cn3nc(C(=O)N4CCC(O)C(F)C4)c4c3CCC4)C3(CC3)C2)c1C` (single isomer, unassigned) [Example 395, 1-(7-(2,3-dimethylphenyl)-4,7-diazaspiro[2.5]octan-4-yl)-2-(3-(3-fluoro-4-hydroxypiperidine-1-carbonyl)-5,6-dihydrocyclopenta[c]pyrazol-1(4H)-yl)ethanone] are 6.86 nM and 4160 nM.
`Cc1cccc(N2CCN(C(=O)Cn3nc(C(=O)N4CCC(O)C(F)C4)c4c3CCC4)C3(CC3)C2)c1C` (single isomer, unassigned) [Example 396, 1-(7-(2,3-dimethylphenyl)-4,7-diazaspiro[2.5]octan-4-yl)-2-(3-(3-fluoro-4-hydroxypiperidine-1-carbonyl)-5,6-dihydrocyclopenta[c]pyrazol-1(4H)-yl)ethanone]: the IC50 on IDO1 [1] turned out to be 4.08 nM; at IDO1 [2] it was 625 nM.
Regarding `Cc1cccc(N2CCN(C(=O)Cn3nc(C(=O)N4CC[C@@H](O)[C@@H](F)C4)c4c3CC(F)C4)CC2)c1C` (single isomer, unassigned) [Example 418], the IC50 at IDO1 [1] stood at 31.7 nM; on IDO1 [2] it was 2470 nM.
On the same counts, the results for `Cc1cccc(N2CCN(C(=O)Cn3nc(C(=O)N4CC[C@@H](O)[C@@H](F)C4)c4c3CC(F)C4)CC2)c1C` (single isomer, unassigned) [Example 419] are 10.8 nM and 1150 nM.
The corresponding values for `Cc1c(F)ccc(N2CCN(C(=O)Cn3nc(C(=O)N4CCC(O)C(CO)C4)c4c3C[C@@H]3C[C@H]43)C3(CC3)C2)c1C` (stereo in doubt) [Example 324, 1-[7-(4-fluoro-2,3-dimethylphenyl)-4,7-diazaspiro[2.5]octan-4-yl]-2-{(3bS,4aS)-3-[4-hydroxy-3-(hydroxymethyl)piperidine-1-carbonyl]-3b,4,4a,5-tetrahydro-1H-cyclopropa[3,4]cyclopenta[1,2-c]pyrazol-1-yl}ethan-1-one] are 0.64 nM and 555 nM.
For `Cc1cccc(N2CCN(C(=O)Cn3nc(C(=O)N4CCCC4)c4c3CCC4)CC2)c1C` [Example 1, 1-(4-(2,3-dimethylphenyl)piperazin-1-yl)-2-(3-(pyrrolidine-1-carbonyl)-5,6-dihydrocyclopenta[c]pyrazol-1(4H)-yl)ethanone], the IC50 on IDO1 [1] came out at 8.75 nM; at IDO1 [2] it was 1820 nM.
With `Cc1cccc(N2CCN(C(=O)Cn3nc(C(=O)N4CCCC4)c4c3CCCC4)CC2)c1C` [Example 2, 1-[4-(2,3-dimethylphenyl)piperazin-4-ium-1-yl]-2-[3-(pyrrolidine-1-carbonyl)-4,5,6,7-tetrahydroindazol-1-yl]ethanone], the IC50 was determined as 4.88 nM on IDO1 [1] and 555 nM at IDO1 [2].
With `Cc1cccc(N2CCN(C(=O)Cn3nc(C(=O)N4CCCC4)c4c3CCCCC4)CC2)c1C` [Example 5, 1-[4-(2,3-dimethylphenyl)piperazin-4-ium-1-yl]-2-[3-(pyrrolidine-1-carbonyl)-5,6,7,8-tetrahydro-4H-cyclohepta[c]pyrazol-1-yl]ethanone], the IC50 stood at 6.83 nM at IDO1 [1] and 414 nM at IDO1 [2].
As for `Cc1c(F)ccc(N2CCN(C(=O)Cn3nc(C(=O)N4C[C@@H](C)O[C@@H](C)C4)c4c3CCC4)CC2)c1C` [Example 48, 2-{3-[(2R,6S)-2,6-dimethylmorpholine-4-carbonyl]-5,6-dihydrocyclopenta[c]pyrazol-1(4H)-yl}-1-[4-(4-fluoro-2,3-dimethylphenyl)piperazin-1-yl]ethan-1-one], the IC50 is 2.93 nM on IDO1 [1] and 492 nM at IDO1 [2].
As for `Cc1c(Cl)cccc1N1CCN(C(=O)Cn2nc(C(=O)N3C[C@@H](C)O[C@@H](C)C3)c3c2CCC3)CC1` [Example 68, 1-[4-(3-chloro-2-methylphenyl)piperazin-1-yl]-2-{3-[(2R,6S)-2,6-dimethylmorpholine-4-carbonyl]-5,6-dihydrocyclopenta[c]pyrazol-1(4H)-yl}ethan-1-one], the IC50 on IDO1 [1] was 3.6 nM; at IDO1 [2] it was 1010 nM.
Regarding `Cc1cccc(N2CCN(C(=O)Cn3nc(C(=O)N4CC[C@H](CO)C4)c4c3CCC4)CC2)c1C` [Example 83, 1-[4-(2,3-dimethylphenyl)piperazin-1-yl]-2-{3-[(3S)-3-(hydroxymethyl)pyrrolidine-1-carbonyl]-5,6-dihydrocyclopenta[c]pyrazol-1(4H)-yl}ethan-1-one], the results for the IC50 on IDO1 [1] and at IDO1 [2] were 5.63 nM and 3490 nM, respectively.
The corresponding values for `Cc1cccc(N2CCN(C(=O)Cn3nc(C(=O)N4CCC(O)CC4)c4c3CCC4)CC2)c1C` [Example 87, 1-[4-(2,3-dimethylphenyl)piperazin-1-yl]-2-[3-(4-hydroxypiperidine-1-carbonyl)-5,6-dihydrocyclopenta[c]pyrazol-1(4H)-yl]ethan-1-one] are 4.27 nM and 2300 nM.
In the case of `Cc1cccc(N2CCN(C(=O)Cn3nc(C(=O)N4C[C@@H](C)O[C@@H](C)C4)c4c3CCC4)CC2)c1C` [Example 88, 2-{3-[(2R,6S)-2,6-dimethylmorpholine-4-carbonyl]-5,6-dihydrocyclopenta[c]pyrazol-1(4H)-yl}-1-[4-(2,3-dimethylphenyl)piperazin-1-yl]ethan-1-one], the IC50 on IDO1 [1] was determined as 2.56 nM; at IDO1 [2], 416 nM.
On to `Cc1cccc(N2CCN(C(=O)Cn3nc(C(=O)N4CCN(S(=O)(=O)N(C)C)CC4)c4c3CCC4)CC2)c1C` [Example 89, 4-(1-{2-[4-(2,3-dimethylphenyl)piperazin-1-yl]-2-oxoethyl}-1,4,5,6-tetrahydrocyclopenta[c]pyrazole-3-carbonyl)-N,N-dimethylpiperazine-1-sulfonamide], for which the values for the IC50 at IDO1 [1] and on IDO1 [2] were 2.96 nM and 454 nM, respectively.

The IC50 is the concentration that inhibits the measured activity by half.
